Measured values: US20110040086A1, “Novel Beta-Lactam Antibiotics, Methods for Their Production, and Their Use” (DRITTE PATENTPORTFOLIO BETEILIGUNGSGESELLSCHAFT MB, priority 2007, published 2011)

Legend:
[1] = test system: Bacillus megaterium SBUG 1152; assay: agar diffusion test (Test System 1, antimicrobial effect); assay type: cell-based
Outline: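 Paper discs loaded with 10 μg, 50 μg or 100 μg of test substance (methanol or water solution) placed on nutrient agar seeded with 10^6 cells of a 17-h B. megaterium culture. After 20 h at 37° C., zone of inhibition measured as diameter in mm.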

[2] = test system: B. subtilis AWD 166; assay: agar diffusion test (antimicrobial effect); assay type: cell-based, Bacillus subtilis
Outline: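 Inhibition zone diameters (mm) read after 20 h incubation at 37 °C. Discs carried 10 μg, 50 μg or 100 μg of test substance, dissolved in methanol or distilled water, on agar inoculated with B. subtilis AWD 166 for dense but separate colonies.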

[3] = test system: Escherichia coli SBUG 1135; assay: agar diffusion test (Test System 1, antimicrobial effect); assay type: cell-based; parameters: key: r = resistant (no detectable zone of inhibition)
Outline: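 Disc diffusion: compound at 10 μg, 50 μg, 100 μg on sensi-discs, three per plate of nutrient agar seeded with ~10^6 E. coli SBUG 1135 (overnight culture, 17 h, 37° C, diluted 1:100). After 20 h incubation at 37° C, zone diameter recorded in mm.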

[4] = test system: Enterococcus faecalis 769; assay: agar diffusion test (Test System II, multi-resistant germs); assay type: cell-based; parameters: key: r = resistant (no detectable zone of inhibition)
Outline: (§1)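 Discs loaded with 10, 50 or 100 μg compound (dissolved in methanol or distilled water) placed on Müller-Hinton agar II inoculated with McFarland 0.5 suspension. Incubated 18-20 h at 37 °C. Inhibition zone diameter read as activity.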

[5] = test system: Staphylococcus aureus 315; assay: as above; assay type: cell-based; parameters: key: r = resistant (no detectable zone of inhibition)
Outline: as §1

[6] = test system: S. aureus 33490; assay: as above; assay type: cell-based, Staphylococcus aureus; parameters: key: r = resistant (no detectable zone of inhibition)
Outline: as §1

[7] = test system: S. aureus 34289; assay: as above; assay type: cell-based, Staphylococcus aureus; parameters: key: r = resistant (no detectable zone of inhibition)
Outline: as §1

[8] = test system: S. aureus 36881; assay: as above; assay type: cell-based, Staphylococcus aureus; parameters: key: r = resistant (no detectable zone of inhibition)
Outline: as §1

[9] = test system: S. aureus 39105; assay: as above; assay type: cell-based, Staphylococcus aureus; parameters: key: r = resistant (no detectable zone of inhibition)
Outline: as §1

[10] = test system: S. aureus 520; assay: as above; assay type: cell-based, Staphylococcus aureus; parameters: key: r = resistant (no detectable zone of inhibition)
Outline: as §1

[11] = test system: S. aureus 526; assay: as above; assay type: cell-based, Staphylococcus aureus; parameters: key: r = resistant (no detectable zone of inhibition)
Outline: as §1

[12] = test system: S. aureus North Germany strain; assay: as above; assay type: cell-based, Staphylococcus aureus; parameters: key: r = resistant (no detectable zone of inhibition)
Outline: as §1

[13] = test system: S. epidermidis 125; assay: as above; assay type: cell-based, Staphylococcus epidermidis
Outline: as §1

[14] = test system: Staphylococcus aureus ATCC 6538; assay: mouse infected with Staphylococcus aureus infection model (survival); assay type: in vivo, BALB/c mice; details: 2 × 0.5 mg (25 mg/kg) i.p.
Outline: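 Survival model: S. aureus grown to extinction 0.6 at 550 nm and injected i.p. (10 μl/g body weight) into cyclophosphamide-pretreated BALB/c mice (250 then 100 mg/kg i.p.), ≥3 animals per arm. Test antibiotic dosed i.p. at 30 min and again later at the same concentration, vehicle PBS/3% DMSO.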

7-[2-(2-ethoxycarbonyl-3,6-dioxocyclohexa-1,4-dienylamino)-2-(4-hydroxyphenyl)-acetylamino]-desacetoxycephalosporanic acid [1d]
Diameter of zone of inhibition ([1]; Quantity n 0.029): 18 mm | Diameter of zone of inhibition ([1]; Quantity n 0.14): 30 mm | Diameter of zone of inhibition ([1]; Quantity n 0.29): 34 mm | Diameter of zone of inhibition ([2]; Quantity n 0.029): 22 mm | Diameter of zone of inhibition ([2]; Quantity n 0.14): 30 mm | Diameter of zone of inhibition ([2]; Quantity n 0.29): 34 mm | Diameter of zone of inhibition ([3]; Quantity n 0.029): r | Diameter of zone of inhibition ([3]; Quantity n 0.14): 12 mm | Diameter of zone of inhibition ([3]; Quantity n 0.29): 16 mm | Diameter of zone of inhibition ([4]; Quantity n 0.029): r | Diameter of zone of inhibition ([4]; Quantity n 0.14): r | Diameter of zone of inhibition ([4]; Quantity n 0.29): r | Diameter of zone of inhibition ([5]; Quantity n 0.029): r | Diameter of zone of inhibition ([5]; Quantity n 0.14): r | Diameter of zone of inhibition ([5]; Quantity n 0.29): 8 mm | Diameter of zone of inhibition ([6]; Quantity n [μmol] 0.029): r | Diameter of zone of inhibition ([6]; Quantity n [μmol] 0.14): 14 mm | Diameter of zone of inhibition ([6]; Quantity n [μmol] 0.29): 16 mm | Diameter of zone of inhibition ([7]; Quantity n [mol] 0.029): r | Diameter of zone of inhibition ([7]; Quantity n [mol] 0.14): r | Diameter of zone of inhibition ([7]; Quantity n [mol] 0.29): r | Diameter of zone of inhibition ([8]; Quantity n 0.029): r | Diameter of zone of inhibition ([8]; Quantity n 0.14): 14 mm | Diameter of zone of inhibition ([8]; Quantity n 0.29): 18 mm | Diameter of zone of inhibition ([9]; Quantity n 0.029): r | Diameter of zone of inhibition ([9]; Quantity n 0.14): r | Diameter of zone of inhibition ([9]; Quantity n 0.29): 14 mm | Diameter of zone of inhibition ([10]; Quantity n [mol] 0.029): r | Diameter of zone of inhibition ([10]; Quantity n [mol] 0.14): r | Diameter of zone of inhibition ([10]; Quantity n [mol] 0.29): r | Diameter of zone of inhibition ([11]; Quantity n 0.029): r | Diameter of zone of inhibition ([11]; Quantity n 0.14): r | Diameter of zone of inhibition ([11]; Quantity n 0.29): r | Diameter of zone of inhibition ([12]; Quantity n 0.029): r | Diameter of zone of inhibition ([12]; Quantity n 0.14): 10 mm | Diameter of zone of inhibition ([12]; Quantity n 0.29): 12 mm | Diameter of zone of inhibition ([13]; Quantity n 0.029): 10 mm | Diameter of zone of inhibition ([13]; Quantity n 0.14): 20 mm | Diameter of zone of inhibition ([13]; Quantity n 0.29): 24 mm | Survival/tested mice n/n [14]: 4/6

CC1=C(C(=O)O)N2C(=O)C(NC(=O)C(NC3=C(C(N)=O)C(=O)C=CC3=O)c3ccccc3)C2SC1 (centres unmarked) [1f, 7-[2-(2-carbamoyl-3,6-dioxocyclohexa-1,4-dienylamino)-2-phenyl-acetylamino]-desacetoxycephalosporanic acid]
Diameter of zone of inhibition ([1]; Quantity n 0.02): 20 mm | Diameter of zone of inhibition ([1]; Quantity n 0.1): 30 mm | Diameter of zone of inhibition ([1]; Quantity n 0.2): 32 mm | Diameter of zone of inhibition ([2]; Quantity n 0.02): 24 mm | Diameter of zone of inhibition ([2]; Quantity n 0.1): 30 mm | Diameter of zone of inhibition ([2]; Quantity n 0.2): 32 mm | Diameter of zone of inhibition ([3]; Quantity n 0.02): r | Diameter of zone of inhibition ([3]; Quantity n 0.1): 14 mm | Diameter of zone of inhibition ([3]; Quantity n 0.2): 18 mm | Diameter of zone of inhibition ([4]; Quantity n 0.02): r | Diameter of zone of inhibition ([4]; Quantity n 0.1): r | Diameter of zone of inhibition ([4]; Quantity n 0.2): r | Diameter of zone of inhibition ([5]; Quantity n 0.02): r | Diameter of zone of inhibition ([5]; Quantity n 0.1): r | Diameter of zone of inhibition ([5]; Quantity n 0.2): 10 mm | Diameter of zone of inhibition ([6]; Quantity n [μmol] 0.02): r | Diameter of zone of inhibition ([6]; Quantity n [μmol] 0.1): 14 mm | Diameter of zone of inhibition ([6]; Quantity n [μmol] 0.2): 16 mm | Diameter of zone of inhibition ([7]; Quantity n [mol] 0.02): r | Diameter of zone of inhibition ([7]; Quantity n [mol] 0.1): r | Diameter of zone of inhibition ([7]; Quantity n [mol] 0.2): r | Diameter of zone of inhibition ([8]; Quantity n 0.02): r | Diameter of zone of inhibition ([8]; Quantity n 0.1): r | Diameter of zone of inhibition ([8]; Quantity n 0.2): 14 mm | Diameter of zone of inhibition ([9]; Quantity n 0.02): r | Diameter of zone of inhibition ([9]; Quantity n 0.1): r | Diameter of zone of inhibition ([9]; Quantity n 0.2): 12 mm | Diameter of zone of inhibition ([10]; Quantity n [mol] 0.02): r | Diameter of zone of inhibition ([10]; Quantity n [mol] 0.1): r | Diameter of zone of inhibition ([10]; Quantity n [mol] 0.2): r | Diameter of zone of inhibition ([11]; Quantity n 0.02): r | Diameter of zone of inhibition ([11]; Quantity n 0.1): r | Diameter of zone of inhibition ([11]; Quantity n 0.2): r | Diameter of zone of inhibition ([12]; Quantity n 0.02): r | Diameter of zone of inhibition ([12]; Quantity n 0.1): r | Diameter of zone of inhibition ([12]; Quantity n 0.2): 10 mm | Diameter of zone of inhibition ([13]; Quantity n 0.02): 10 mm | Diameter of zone of inhibition ([13]; Quantity n 0.1): 22 mm | Diameter of zone of inhibition ([13]; Quantity n 0.2): 28 mm | Survival/tested mice n/n [14]: 3/3
